Patent US20100105746A1, “METHOD FOR TREATING METABOLIC DISEASES” (priority 2008, published 2010)

Key:
[1] = Multiplex bioanalytics profiling of plasma lipids in drug-dosed rats (Example 1); format: in vivo, rat; details: 7 days
Protocol: Multiplex bioanalytics profiling can elucidate novel pharmacological actions of drugs via measurement of hundreds of disease-relevant biomolecules in biofluids collected from drug-dosed animals. Romazarit was evaluated via a full multiplex bioanalytics profiling study.
(§1) In an initial experiment, two dose groups of six animals per group received either 5 or 50 mg/kg b.i.d., and a further group received vehicle only, as a control. A follow-up experiment was performed to explore dose-response and the selected doses were 15 and 50 mg/kg b.i.d., again plus control.
In both experiments, urine was collected from each animal by clean-catch after the final dose on day 7, and cerebrospinal fluid (CSF) and plasma were collected (terminal samples) on day 8. Aliquots of the CSF and plasma samples from each individual were submitted for LC-MS analyses of bioanalytes. Three different separation methods were run, with MS analyses in both positive and negative ion modes, to enable resolution of relative quantification of the bioanalytes. These methods included: • RP-I: LC-MS of polar and non-polar abundant lipids (e.g., individual cholesterol esters, triglycerides, diacylglycerols, phospholipids, lysophospholipids); • RP-II: LC-MS of lower abundance bioanalytes (e.g., eicosanoids & other lipid mediators, fatty acids, oxidized fatty acids, bile acids, conjugated bile acids); • PLR: LC-MS of polar compounds (e.g., catecholamines & serotonin pathway, amino acids, organic acids, sugars).

[2] = LC-MS of plasma amino acids and thyroxine in rats (Example 2); format: in vivo, rat; details: 7 days
Protocol: as §1
In both experiments, urine was collected from each animal by clean-catch after the final dose on day 7, and cerebrospinal fluid (CSF) and plasma were collected (terminal samples) on day 8. Aliquots of the CSF and plasma samples from each individual were submitted for LC-MS analyses of bioanalytes. Three different separation methods were run, with MS analyses in both positive and negative ion modes, to enable resolution of relative quantification of the bioanalytes.

[3] = Weight gain in rats over seven-day dosing (Example 3); format: in vivo, rat; details: 7 days
Protocol: as §1
Body weights of individual rats were recorded before and after the seven-day dosing period.

[4] = Body weight, food consumption and liver weight in diet-induced obese (DIO) rat model (Example 4); format: in vivo; details: for liver weight: rat, in vivo, po
Protocol: Male Sprague-Dawley rats were acclimated for 7 weeks on a high-fat diet before commencement of dose administration, and maintained on the same diet throughout the subsequent dosing period of 23 days. The high-fat diet (D12492 commercially available from Research Diets, Inc., New Brunswick, N.J.) was one in which at least 60% of calories are derived from fat.
Dose levels of gemfibrozil (50 mg/kg) and sibutramine (10 mg/kg) were selected based on published reports. All treatments were administered once daily by oral gavage in 10 ml vehicle. A vehicle-only control was also administered. Each treatment group consisted of 10 animals.
Body weight of each animal was measured weekly during the 7-week acclimation period and five times weekly during the 23-day dosing period. Food consumption was recorded twice weekly during the 7-week acclimation period and five times weekly during the 23-day dosing period.
Animals were sacrificed and liver weights measured at conclusion of the study.

[5] = Terminal fasting serum glucose and lipids in rats with diet-induced obesity (Example 6); format: in vivo, rat; details: DIO rats, vs vehicle control
Protocol: As part of the study described in Example 4, a terminal blood sample (0.5 ml whole blood in EDTA) was collected on day 24, after a 12-18 hour fast. Whole blood was processed to serum, and analyzed for glucose, total cholesterol, HDL cholesterol, free fatty acids and total triglycerides.

[6] = Diabetic-prone (db/db) mouse model with high-fat diet (Example 7); format: in vivo; details: db/db mice, high-fat diet, 15, 50 and 100 mg/kg once daily
Protocol: The fibrate PPARα agonist fenofibrate (50 mg/kg) and the PPARγ agonist rosiglitazone (10 mg/kg) were used as reference controls for the study.

[7] = Plasma lipids, lipoproteins and liver weight in normal rats versus fibrates (Example 8); format: in vivo, rat; details: once daily p.o. 7 days
Excerpt: The study design was based on the protocols used in Examples 1-3. Male Sprague-Dawley rats were provided normal chow ad libitum, both before and during the study period. […] Six rats were assigned to each treatment group (8 to the vehicle control). The study terminated on the day following administration of the seventh dose (day 8), with terminal blood collected for plasma lipid and lipoprotein analyses including LC-MS-based determination of lipid profiles, total and free cholesterol analyses, and lipoprotein cholesterol determinations (VLDL, LDL and HDL).
In order to elucidate the impact of romazarit on plasma lipoproteins, an ultraviolet (UV) size exclusion chromatography (SEC) system was used to separate plasma into broad lipoprotein-containing fractions that were based on relative retention times of human VLDL (very low density lipoprotein), LDL (low density lipoprotein), and HDL (high density lipoprotein) standards. These fractions were collected for cholesterol assays and the UV chromatograms were integrated to provide relative quantitation of the three lipoprotein types. It is important to note that since the UV absorbance measurement is not specific for lipoproteins and may also derive from other plasma constituents that co-elute with a particular lipoprotein, the relative quantitation data reported here is an approximation. The HDL fraction in particular may have included such co-eluting species, as evidenced by the relatively high integrated area values for this fraction.

[8] = 15 mg/kg b.i.d. p.o., second experiment
[9] = 50 mg/kg b.i.d. p.o., initial experiment
[10] = 50 mg/kg b.i.d. p.o., second experiment
[11] = 5 and 50 mg/kg b.i.d. p.o., initial experiment
[12] = DIO rats, 50 mg/kg once daily p.o.
[13] = DIO rats, 100 mg/kg once daily p.o.

SMILES: Cc1nc(-c2ccc(Cl)cc2)oc1COC(C)(C)C(=O)O [romazarit, 2-[[2-(4-chlorophenyl)-4-methyl-5-oxazolyl]methoxy]-2-methylpropanoic acid]
- plasma triglycerides ([1]; 5 mg/kg b.i.d. p.o., initial experiment): also apparent
- plasma triglycerides [1, 8]: lowered plasma triglycerides to a degree that was intermediate
- plasma triglycerides [1, 9]: highly pronounced
- plasma cholesterol esters [1, 10]: generally similar to those seen with the same dose in the initial experiment
- plasma triglycerides [1, 10]: generally similar to those seen with the same dose in the initial experiment
- plasma cholesterol esters [1, 11]: increased
- plasma amino acids [2, 10]: generally similar to those for the same dose in the initial experiment
- plasma thyroxine [2, 10]: generally similar to those for the same dose in the initial experiment
- levels of common amino acids in plasma [2, 11]: small but significant lowering
- plasma thyroxine (T4) [2, 11]: concomitant decrease
- weight gain [3, 8]: generally similar to that seen in the initial experiment with the 5 mg/kg dose
- weight gain [3, 9]: dramatic inhibition of weight gain
- weight gain [3, 10]: not only inhibited weight gain, but even resulted in weight loss
- food consumption ([4]; DIO rats, 15 mg/kg once daily p.o., throughout the dosing period): comparable to the vehicle control
- day by which food consumption returned to levels comparable to the vehicle control [4, 12]: ≤ 15 days
- day of minimum food consumption [4, 12]: 6 days
- body weight loss by comparison with the vehicle control ([4]; DIO rats, 50 mg/kg once daily p.o., day 16): 10.3%
- body weight loss by comparison with the vehicle control ([4]; DIO rats, 50 mg/kg once daily p.o., day 23): 4.6%
- food consumption ([4]; DIO rats, 50 mg/kg once daily p.o., first 13 days of the dosing period): significantly less than the vehicle control
- day by which food consumption returned to levels comparable to the vehicle control [4, 13]: ≤ 15 days
- day of minimum food consumption [4, 13]: 8 days
- body weight loss by comparison with the vehicle control (maximum) ([4]; DIO rats, 100 mg/kg once daily p.o., day 16): 16%
- body weight loss by comparison with the vehicle control ([4]; DIO rats, 100 mg/kg once daily p.o., end of study (day 23)): 13.3%
- food consumption ([4]; DIO rats, 100 mg/kg once daily p.o., first 13 days of the dosing period): significantly less than the vehicle control
- liver weight ([4]; 15 mg/kg): No increase in liver weight
- liver weight ([4]; 50 mg/kg): Increased liver weight
- liver weight ([4]; 100 mg/kg): Increased liver weight
- terminal (total) cholesterol levels ([5]; day 24, 15 mg/kg once daily): not statistically significant
- terminal HDL levels ([5]; day 24, 15 mg/kg once daily): not statistically significant
- terminal fasting levels of triglycerides ([5]; day 24, 15 mg/kg once daily): significant reduction
- terminal fasting serum glucose ([5]; day 24, 15 mg/kg once daily): significantly reduced
- terminal levels of free fatty acids ([5]; day 24, 15 mg/kg once daily): did not, at any of the tested doses, affect
- terminal (total) cholesterol levels ([5]; day 24, 50 mg/kg once daily): significantly reduced
- terminal HDL levels ([5]; day 24, 50 mg/kg once daily): significantly reduced
- terminal fasting levels of triglycerides ([5]; day 24, 50 mg/kg once daily): significant reduction
- terminal fasting serum glucose ([5]; day 24, 50 mg/kg once daily): significantly reduced
- terminal levels of free fatty acids ([5]; day 24, 50 mg/kg once daily): did not, at any of the tested doses, affect
- terminal (total) cholesterol levels ([5]; day 24, 100 mg/kg once daily): significantly reduced
- terminal HDL levels ([5]; day 24, 100 mg/kg once daily): significantly reduced
- terminal fasting levels of triglycerides ([5]; day 24, 100 mg/kg once daily): did not achieve statistical significance
- terminal fasting serum glucose ([5]; day 24, 100 mg/kg once daily): significantly reduced
- terminal levels of free fatty acids ([5]; day 24, 100 mg/kg once daily): did not, at any of the tested doses, affect
- HDL [6]: did not significantly affect
- total cholesterol [6]: did not significantly affect
- total plasma triglycerides [6]: tendency likewise to reduce total plasma triglycerides at higher doses
- weight gain [6]: None of the romazarit or fenofibrate treatments reduced weight gain
- whole blood glucose levels [6]: no such effect was seen
- potency in lowering plasma free fatty acids compared to the other compounds tested ([7]; 50 and 100 mg/kg): superior potency
- plasma cholesterol esters ([7]; 50 and 100 mg/kg (romazarit also 10 mg/kg)): increased at least some fractions of plasma cholesterol esters
- plasma free fatty acids ([7]; romazarit 10, 50 and 100 mg/kg): lowered plasma free fatty acids in a dose-dependent manner
- plasma triglycerides ([7]; romazarit 10, 50 and 100 mg/kg): significantly lowered
